Results: US4066743A, “X-ray contrast agents” (Mallinckrodt, Inc., priority 1976, dated 1978)
Where two headings read alike, the source gives them in different places.

Tests used:
Swiss Albino mice [1] = assay: Acute Intravenous Toxicity Studies in Mice; type: in vivo; settings: N-methylglucamine (meglumine) salt, i.v. lateral tail vein, 1 ml./min, 7 day observation, Litchfield and Wilcoxon
Procedure: (§1) Toxicity evaluations by three different techniques were carried out on solutions of the N-methylglucamine salts of 3-acetamido-5-(4,4-bishydroxymethyl-2-oxazolinyl)-2,4,6-triiodobenzoic acid and 3-acetamido-5-(4-methyl-4-hydroxymethyl-2-oxazolinyl)-2,4,6-triiodobenzoicacid. The techniques utilized are outlined below.
I. Acute Intravenous Toxicity Studies in Mice
Swiss Albino mice (Charles River) were dosed in the lateral tail vein with solutions of the iodinated compounds containing 50.4% iodine in the case of 3-acetamido-5-(4,4-bishydroxymethyl-2-oxazolinyl)-2,4,6-triiodobenzoic acid and 28.2% iodine in the case of 3-acetamido-5-(4-methyl-4-hydroxymethyl-2-oxazolinyl)-2,4,6-triiodobenzoicacid, injected at the rate of 1 ml./min. […] The LD50 values were calculated by the method of Litchfield and Wilcoxon (J. of Pharmac. and Exptl. Therap. 96: 99-113, 1949).

Swiss Albino mice [2] = assay: Intracerebral Toxicity in Mice; type: in vivo; settings: N-methylglucamine (meglumine) salt, 7 day observation, Litchfield and Wilcoxon
Procedure: as §1
II. Intracerebral Toxicity in Mice
Swiss Albino mice (Charles River) were used. Fixed volumes of solutions of various concentrations of the iodinated compounds were injected intracerebrally via a 27 gauge needle, (1/4 inch length) according to the method of Haley, et al. (Br. J. of Pharmac. 12:12-15, 1957). The animals were observed immediately after injections and daily throughout a 7 day observation period. The LD50 values were calculated by the method of Litchfield and Wilcoxon (J. of Pharmac. and Exptl. Therap. 96:99-113, (1949)).

Sprague Dawley rats = assay: Intracisternal Toxicity in Rats; type: in vivo; settings: N-methylglucamine (meglumine) salt, 2 day observation, Litchfield and Wilcoxon
Procedure: as §1
III. Intracisternal Toxicity in Rats
Sprague Dawley (Carworth) rats were used. The method used was a variation of the procedure outlined by Melartin et al. (Invest. Rad. 5:13-21, 1970). After dosing, the animals were housed individually, and observed for immediate reactions and periodically for a 2 day observation period. The LD50 values were calculated according to the method of Litchfield and Wilcoxon, (J. of Pharmac. and Exptl. Therap. 96:[…], 1949).

[3] = water solubility of the sodium salt; type: physicochemical
[4] = read-out: water solubility of the sodium salt

Row | solubility [3, 4] | Compound | LD50 of Meglumine Salt, I.V. (Mice) (Swiss Albino mice [1]) | LD50 of Meglumine Salt, Intracerebral (Mice) (Swiss Albino mice [2]) | LD50 of Meglumine Salt, Intracisternal (Rats) (Sprague Dawley rats) | solubility ([3]; w/v not given, read-out: solubility of the sodium salt)
1 |  | CC(=O)Nc1c(I)c(C(=O)O)c(I)c(C2=NC(C)(CO)CO2)c1I (stereo not shown) [Example 8, 3-Acetamido-5-(4-methyl-4-hydroxymethyl-2-oxazolinyl)-2,4,6-triiodobenzoic Acid] | 5,500 mg. contained iodine/kg. anima | 280 mg. contained iodine/kg. anima | 28 mg. contained iodine/kg. anima | 738 mg/mL
2 | ~800 mg/mL | Nc1c(I)c(C(=O)O)c(I)c(C(=O)NC(CO)(CO)CO)c1I [Example 3, 5-Amino-N-[tris(hydroxymethyl)methyl]-2,4,6-triiodoisophthalamic Acid] |  |  |  | 
3 | ~830 mg/mL | CC(CO)(CO)NC(=O)c1c(I)c(N)c(I)c(C(=O)O)c1I [Example 6, 5-Amino-N-[2-(1,3-dihydroxy-2-methyl)propyl]-2,4,6-triiodoisophthalamic Acid] |  |  |  | 

Row | Compound | solubility [3, 4] | LD50 of Meglumine Salt, I.V. (Mice) (Swiss Albino mice [1]) | LD50 of Meglumine Salt, Intracerebral (Mice) (Swiss Albino mice [2]) | LD50 of Meglumine Salt, Intracisternal (Rats) (Sprague Dawley rats) | solubility ([3]; w/v not given, read-out: solubility of the sodium salt)
4 | CC(=O)Nc1c(I)c(C(=O)O)c(I)c(C2=NC(CO)(CO)CO2)c1I [Example 4, 3-Acetamido-5-(4,4-bis(hydroxymethyl)-2-oxazolinyl)-2,4,6-triiodobenzoic Acid] | 958 mg/mL | 5,522 mg. contained iodine/kg. anima | 485 mg. contained iodine/kg. anima | 55 mg. contained iodine/kg. anima | 
